In patent US20060210611A1, “Fat soluble vitamin feed supplements and processes for delivering same” (priority 2003, published 2006):
Where two headings read alike, the source gives them in different places.

How the values were obtained:
[1] = per 1 mg; cited from earlier work
[2] = cited from earlier work
[3] = cited from earlier work; remark: listed apart in the source
[4] = Calculated average AT accretion rates in longissimus muscle (Arnold and McClure combined); type: in vivo, cattle
Excerpt: Combining the results from Arnold and McClure, and bearing in mind that various muscles accrete AT at different rates (sirloin>inside round>RCDM>strip loin; Roeber et al., Effects of Three Levels of α-Tocopherol Acetate Supplementation to Feedlot Cattle on Performance of Beef Cuts (2001)), average accretion rates for AT in longissimus muscle can be calculated: […]

[5] = AT accretion in RCDM neck muscle at 1,000 IU vitamin E/hd/day (McClure); type: in vivo, Bos indicus crosses; conditions: 1000 IU/hd/day (McClure), 25-125 days fed
Protocol: McClure (FIG. 1) tested the rate of accretion in Bos indicus crosses when fed 1,000 IU of Vitamin E/hd/day. Groups of cattle were slaughtered at 25-day intervals, and neck muscles obtained for tissue AT analysis. Because the controls were already receiving 200 IU E/day, initial AT concentrations were above 3.5. However, RCDM (rectus capitis dorsalis major) AT concentration rose in a logarithmic fashion, eventually reaching a plateau of 9.3 μg/gm. (McClure et al., Determination of Appropriate Vitamin E Supplementation Levels and Administration Times to Ensure Adequate Muscle Tissue Alpha-Tocopherol Concentrations in Cattle Destined for the Nolan Ryan Tender-Aged Beef (NRTAAB) Program, Animal Sciences Report (2002)).

[6] = Dietary vitamin E regimens and final longissimus muscle α-tocopherol (AT) concentration (Arnold); type: in vivo, cattle
Protocol: For example, Arnold compared several dietary vitamin E regimens and their resultant final tissue concentration of α-tocopherol (AT). Comparing the results to baseline control and assuming AT accretion in longissimus muscle is linear over time, approximate rates of AT accretion are calculated for various E regimens. Because AT rise is likely logarithmic (See e.g., Arnold et al., J. Anim. Sci. 71:105-118. (1993)), these calculated rates are conservative estimates, especially for feeding periods exceeding 150 days.

[7] = 360 IU/hd/day, 211-252 days fed
[8] = 1280 IU/hd/day, 211-252 days fed
[9] = 2080 IU/hd/day, 196-266 days fed
[10] = 3520 IU/hd/day, 196-266 days fed

Molecule: CC(=O)Oc1c(C)c(C)c2c(c1C)CCC(C)(CCCC(C)CCCC(C)CCCC(C)C)O2 (racemic) [all-rac-α-tocopherol acetate]
- specific activity [1]: 1.00 IU per milligram

Molecule: Cc1c(C)c2c(c(C)c1O)CCC(C)(CCCC(C)CCCC(C)CCCC(C)C)O2 (racemic) [all-rac-α-tocopherol]
- specific activity [1]: 1.10 IU per milligram

Molecule: CC(=O)Oc1c(C)c(C)c2c(c1C)CC[C@@](C)(CCC[C@H](C)CCC[C@H](C)CCCC(C)C)O2 [RRR-α-tocopherol acetate]
- specific activity [1]: 1.36 IU per milligram

Molecule: Cc1c(C)c2c(c(C)c1O)CC[C@@](C)(CCC[C@H](C)CCC[C@H](C)CCCC(C)C)O2 [RRR-α-tocopherol]
- specific activity [1]: 1.49 IU per milligram

Molecule: Vitamin E
- RCDM AT concentration plateau ([2]; 1,000 IU of Vitamin E/hd/day, slaughter at 25-day intervals): 9.3 μg/gm
- Final AT concentration (in RCDM muscle) ([2]; 1000 IU/hd/day (McClure), 25-125 days fed): 9.3 μg/gm wet muscle
- initial AT concentrations ([2]; controls already receiving 200 IU E/day): above 3.5
- Final Longissimus AT concentration ([3]; 300 IU/hd/day, 231-309 days fed): 3.8 μg/gm wet muscle
- Final Longissimus AT concentration [3, 7]: 4.1 μg/gm wet muscle
- Final Longissimus AT concentration ([3]; 1140 IU/hd/day, 67 days fed): 6.2 μg/gm wet muscle
- Final Longissimus AT concentration ([3]; 1200 IU/hd/day, 38 days fed): 3.5 μg/gm wet muscle
- Final Longissimus AT concentration [3, 8]: 6.8 μg/gm wet muscle
- Final Longissimus AT concentration [3, 9]: 6.8 μg/gm wet muscle
- Final Longissimus AT concentration [3, 10]: 7.6 μg/gm wet muscle
- AT Accretion ([4]; Vitamin E dose 500 IU/hd/day): 0.75-1.0 μg AT/gm wet muscle/50 days
- AT Accretion ([4]; Vitamin E dose 1000+ IU/hd/day): 1.5-3.6 μg AT/gm wet muscle/50 days
- AT Accretion ([4]; Vitamin E dose less than 500 IU/hd/day): 0.5-0.6 μg AT/gm wet muscle/50 days
- Calculated Rise in AT per 50 days [5]: 2.6 μg/gm/50 days
- Calculated Rise in AT per 50 days ([6]; 300 IU/hd/day, 231-309 days fed, vs control baseline, linear accretion assumed): 0.52 μg/gm/50 days
- Calculated Rise in AT per 50 days [6, 7]: 0.64 μg/gm/50 days
- Calculated Rise in AT per 50 days ([6]; 1140 IU/hd/day, 67 days fed): 3.58 μg/gm/50 days
- Calculated Rise in AT per 50 days ([6]; 1200 IU/hd/day, 38 days fed): 2.76 μg/gm/50 days
- Calculated Rise in AT per 50 days [6, 8]: 1.28 μg/gm/50 days
- Calculated Rise in AT per 50 days [6, 9]: 1.38 μg/gm/50 days
- Calculated Rise in AT per 50 days [6, 10]: 1.58 μg/gm/50 days
